Assay results as given in patent US6528675B1, “Cyanohydrin ethers and esters as high-sensitivity enzyme substrates” (The Regents of the University of California, priority 2001, dated 2003).

Experiment: Rate of conversion of cyanohydrin to aldehyde as a function of pH
Assay type: physicochemical
Settings: pH 8.0 or greater, tris-maleate 0.1 M, 25° C.
Procedure: This example illustrates the rate of conversion of a cyanohydrin formed in the practice of this invention to its corresponding aldehyde. The cyanohydrin used in this example is hydroxy-(6-methoxynaphthalen-2-yl) acetonitrile, which is the cyanohydrin formed by the action of an esterase on the substrate of Example 1.
The rate of cyanohydrin-to-aldehyde conversion was determined as a function of pH at constant ionic strength (0.1 M) and temperature (25° C.), using a series of tris-maleate buffers with different pH values ranging from 6.0 to 9.0 at intervals of 0.5. Conversion was initiated by the addition of 3 μL of 10 mM of cyanohydrin, and the formation of 6-methoxy-2-naphthaldehyde, measured in pmol cyanohydrin converted per second per mL, was detected by fluorescence excitation at 330 nm and emission at 460 nm over a time period of 20 minutes. […] The rate of aldehyde conversion increases rapidly at pH 8.0 or greater with maximum fluorescence achieved in less than 20 seconds.

## COc1ccc2cc(C(O)C#N)ccc2c1 (stereo not shown) [cyanohydrin, hydroxy-(6-methoxynaphthalen-2-yl) acetonitrile]
  time to maximum fluorescence (cyanohydrin-to-aldehyde conversion): less than 20 seconds
